According to patent publication US20120034192A1, “COMPOSITIONS AND METHODS FOR ENHANCING CELL REPROGRAMMING” (priority 2008, published 2012):

Key:
G9a HMTase = molecular target: T1, G9a HMTase (Homo sapiens, UniProt Q96KQ7); conditions: cited from earlier work
T1 sequence (Q96KQ7 1-1210): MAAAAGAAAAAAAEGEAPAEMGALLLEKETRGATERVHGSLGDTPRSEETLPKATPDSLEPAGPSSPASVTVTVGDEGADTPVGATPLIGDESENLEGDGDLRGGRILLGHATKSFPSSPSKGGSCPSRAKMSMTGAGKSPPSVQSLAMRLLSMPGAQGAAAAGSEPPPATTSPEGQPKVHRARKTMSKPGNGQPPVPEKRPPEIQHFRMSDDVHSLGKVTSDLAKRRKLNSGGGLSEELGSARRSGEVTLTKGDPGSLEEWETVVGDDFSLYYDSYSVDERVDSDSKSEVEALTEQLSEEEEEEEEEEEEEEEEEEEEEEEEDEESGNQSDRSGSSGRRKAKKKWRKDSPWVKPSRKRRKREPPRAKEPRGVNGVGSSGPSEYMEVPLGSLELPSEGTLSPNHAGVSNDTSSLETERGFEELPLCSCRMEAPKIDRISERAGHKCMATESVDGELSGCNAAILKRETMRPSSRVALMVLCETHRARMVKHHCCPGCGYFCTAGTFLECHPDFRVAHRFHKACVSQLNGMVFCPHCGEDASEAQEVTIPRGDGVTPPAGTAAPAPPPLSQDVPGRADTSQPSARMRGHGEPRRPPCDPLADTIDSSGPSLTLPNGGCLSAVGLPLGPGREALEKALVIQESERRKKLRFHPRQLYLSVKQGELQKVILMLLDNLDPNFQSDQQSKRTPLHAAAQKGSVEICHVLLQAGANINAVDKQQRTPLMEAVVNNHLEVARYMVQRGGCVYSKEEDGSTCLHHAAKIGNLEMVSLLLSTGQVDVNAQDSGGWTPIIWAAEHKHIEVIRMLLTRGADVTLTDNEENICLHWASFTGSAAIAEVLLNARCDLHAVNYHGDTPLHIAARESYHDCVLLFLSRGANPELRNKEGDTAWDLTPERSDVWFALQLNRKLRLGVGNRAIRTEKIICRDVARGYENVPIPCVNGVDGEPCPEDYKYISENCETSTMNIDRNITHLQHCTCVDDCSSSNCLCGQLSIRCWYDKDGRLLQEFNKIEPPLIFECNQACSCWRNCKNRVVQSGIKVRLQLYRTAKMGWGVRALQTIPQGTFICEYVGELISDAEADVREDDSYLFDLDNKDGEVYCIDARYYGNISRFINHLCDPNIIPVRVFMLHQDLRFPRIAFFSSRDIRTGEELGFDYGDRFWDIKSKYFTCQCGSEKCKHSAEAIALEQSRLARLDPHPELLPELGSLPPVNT

histone deacetylase = conditions: cited from earlier work
[1] = test system: 2nd KSO cells (secondary mouse embryonic fibroblasts); experiment: iPS cell colony formation from 2nd KSO secondary MEFs after siRNA transfection; format: cell-based; conditions: siRNA 50 nM
Description: Applicants next sought to determine the effect of inhibiting H3K9 methyltransferases on generation of iPS cells. For some experiments, Applicants used “secondary” mouse embryonic fibroblasts (MEFs) that express murine reprogramming factors Klf4, Sox2, and Oct4 under the control of a doxycycline (“dox”)-inducible promoter. These cells, which are referred to as “2nd KSO” cells for short, reprogram to form iPS cells at a low frequency upon treatment with doxycycline, as described in the literature. The cells contained an Oct4-neo transgene, thereby allowing use of G418 to select for cells that were reprogrammed to pluripotency (as evidenced by expression from the Oct4 promoter).
Applicants plated 2nd KSO cells into individual wells of 6-well dishes (100,000 cells per well) in mES cell medium (3 ml) on day 0. On day 1, cells in individual wells were transfected with siRNA (Ambion) designed to inhibit expression of a gene encoding one of the following H3K9 methyltransferases: Ehmt1, Ehmt2, Suv39h1, Suv39h2, and Riz1. Two different siRNAs targeted to each of these genes were used (each well received a single siRNA sequence). […] Accordingly, results obtained using this siRNA must be disregarded. […]
Cells were treated with dox to induce expression of the reprogramming factors. […] Colonies were counted on day 20.

**Q.** With `COc1cc2nc(N3CCCN(C)CC3)nc(NC3CCN(Cc4ccccc4)CC3)c2cc1OC` [BIX-01294] as the molecule, how does the “competition with cofactor S-adenosyl-methionine” value (G9a HMTase) read?
**A.** does not compete with the cofactor S-adenosyl-methionine

**Q.** What about the “selective inhibition of HMTase and generation of H3K9me2” value (G9a HMTase; in vitro) of the same molecule?
**A.** selectively impairs the G9a HMTase and the generation of H3K9me2 in vitro

**Q.** With `CC(/C=C/C(=O)NO)=C\[C@@H](C)C(=O)c1ccc(N(C)C)cc1` [Trichostatin A, [R-(E,E)]-7-[4-(Dimethylamino)phenyl]-N-hydroxy-4,6-dimethyl-7-oxo-2,4-heptadienamide] as the molecule, how does the “concentration inhibiting histone deacetylase” value (histone deacetylase) read?
**A.** nanomolar concentrations

**Q.** Which cell growth ([1]; 2nd KSO cells) does the source give for “s82302: siRNA (Ambion) vs suv39h2; sense GUGUCGAUGUGGACCUGAAtt, antisense UUCAGGUCCACAUCGACACct (sense GUGUCGAUGUGGACCUGAATT; antisense UUCAGGUCCACAUCGACACCT; chemistry not given here)” here?
**A.** inhibited cell growth

**Q.** For “siRNA #2 against SetDB1: siRNA (Ambion) vs ESET/SetDB1; sense GGACGAUGCAGGAGAUAGAtt, antisense UCUAUCUCCUGCAUCGUCCga (sense GGACGAUGCAGGAGAUAGATT; antisense UCUAUCUCCUGCAUCGUCCGA; chemistry not given here)”, which “number of iPS cell colonies / reprogramming efficiency” value ([1]; dox, G418 from day 14, colonies counted on day 20) is on record?
**A.** most striking increase in reprogramming efficiency
